This note sets out measurements from PubChem BioAssay AID1996.

The structures appear in SMILES notation. In brackets after ≈: the same amount, converted by molar mass. Where only a bound is given, the exact number is not on record here.

The conditions of this data set: buffer; pH 7.4; 200.0 µM.
As to `NC1=NC(=O)C(Cc2ccc(F)cc2)S1` (configuration not stated), the kinetic solubility was 22 µg/mL (≈ 98.1 µM).

Regarding `COCCNC(=O)C(C)OC(=O)C1=Cc2ccccc2OC1` (configuration not stated), the solubility (kinetic) is above 45.8 µg/mL.

In turn, `COc1ccc(CCNC(=O)COC(=O)/C=C/c2cccc(F)c2)cc1` came in with a solubility (kinetic) of 5.4 µg/mL (≈ 15.1 µM).

`COC(=O)CC1C(=O)NCCN1C(=S)Nc1ccc(F)cc1` (configuration not stated) yielded a kinetic solubility above 48.8 µg/mL.

`CCCN(CC(=O)Nc1cc(Cl)ccc1Cl)C(=O)/C=C/c1cc(OC)ccc1OC` yielded a kinetic solubility of 5.1 µg/mL (≈ 11.3 µM).

Molecule `COc1cc2ccccc2cc1C(=O)N1CC(C)OC(C)C1` (configuration not stated) showed a kinetic solubility above 44.9 µg/mL.

Regarding `CC(C)CNS(=O)(=O)c1ccc(CCC(=O)N2CCCC2)cc1`, the kinetic solubility was above 50.8 µg/mL.

The molecule `COC(=O)Nc1ccc(S(=O)(=O)Nc2cnc3ccccc3n2)cc1` returned a solubility (kinetic) above 53.8 µg/mL.

On to `O=C(c1cn(Cc2ccccc2)c2ccccc12)N1CCCCC1`, for which the kinetic solubility worked out at 30.6 µg/mL (≈ 96.1 µM).

Molecule `CC1CC(=O)Nc2ccccc2N1C(=O)Nc1ccc(F)cc1F` (configuration not stated) came in with a solubility (kinetic) above 49.7 µg/mL.

Consider `CC1CC(C)CN(C(=O)CCCNC(=O)c2ccc(Cl)cc2)C1` (configuration not stated), for which the solubility (kinetic) is above 50.5 µg/mL.

On to `CCOC(=O)C1Nc2ccc(C(=O)O)cc2C2C=CCC12` (configuration not stated), for which the solubility (kinetic) was above 43.1 µg/mL.

Regarding `COC(=O)c1sccc1NC(=S)N(C)C1CCCCC1`, the solubility (kinetic) is 0.4 µg/mL (≈ 1.28 µM).

For `Cl.OCCN1C2=NCCCN2c2ccccc21`, the solubility (kinetic) was above 38.1 µg/mL.

On to `S=C(NC1CCCCC1)N1CCn2cccc2C1c1cccnc1` (configuration not stated), for which the kinetic solubility is above 51.1 µg/mL.

With `O=C1CC(C(=O)NC2CCCCC2)C2(CCCCC2)O1` (configuration not stated), the kinetic solubility is above 41.9 µg/mL.

The molecule `COc1ccc(/C=C/C2=CCN(C)CC2)cc1.Cl` came in with a kinetic solubility above 39.9 µg/mL.

As for `CC1CCCN(C(=O)COC(=O)Cc2ccc(Cl)cc2)C1` (configuration not stated), the kinetic solubility was 29.8 µg/mL (≈ 96.2 µM).

`O=C(NC1CCN(C(=O)c2cccs2)CC1)c1ccccc1` yielded a kinetic solubility of 46.1 µg/mL (≈ 147 µM).

The molecule `O=C(COC(=O)COc1ccccc1)NCc1ccc2c(c1)OCO2` returned a kinetic solubility above 51.5 µg/mL.

On to `CCOC(=O)N1CCN(CCC(=O)Nc2cc(C)ccc2C)CC1`, for which the solubility (kinetic) is above 50 µg/mL.

Regarding `Cc1ccc(C(=O)NCC(=O)N2CCCCCCC2)cc1C`, the kinetic solubility is above 45.4 µg/mL.

The molecule `CN(C)/C=C(\C#N)S(=O)(=O)c1ccccc1` registered a solubility (kinetic) above 35.4 µg/mL.

Molecule `OCCNc1nc2ccccc2n1CC(O)c1ccccc1` (configuration not stated) gave a solubility (kinetic) of 40.4 µg/mL (≈ 136 µM).

For `O=C(CN1C(=O)NC2(CCCCCC2)C1=O)NCc1ccc(Cl)cc1`, the solubility (kinetic) turned out to be 23.5 µg/mL (≈ 64.6 µM).

Regarding `CC1(C)CCC(=O)N(c2ccc(OC(F)(F)F)cc2)C1=O`, the solubility (kinetic) was above 45.2 µg/mL.

As to `COc1ccc(C(=O)NCCc2c[nH]c3ccccc23)cc1`, the kinetic solubility was 42.6 µg/mL (≈ 145 µM).

In the case of `CNc1snc(C)c1C(=O)OCC(=O)NCc1ccccc1OC`, the kinetic solubility came out at 3.8 µg/mL (≈ 10.9 µM).

In turn, `Cc1ccc(-c2ccc(CCC(=O)O)n2-c2cccc(C(=O)O)c2)cc1` yielded a solubility (kinetic) of 50.4 µg/mL (≈ 144 µM).

With `O=[N+]([O-])c1ccccc1OCc1nc(-c2cccs2)no1`, the kinetic solubility was 0.9 µg/mL (≈ 2.97 µM).

`Cc1nc2ccccc2n1Cc1ccccc1` yielded a kinetic solubility of 32.9 µg/mL (≈ 148 µM). This solubility kinetic lies about 37-fold higher than the previous one.

The molecule `N#CC(C#N)=C1C(=O)N(CCN2CCOCC2)c2ccccc21` yielded a kinetic solubility above 46.3 µg/mL.

With `Nc1nc(-c2ccc3c(c2)OCCO3)c(CC(=O)O)s1`, the solubility (kinetic) was 41.1 µg/mL (≈ 141 µM).

Molecule `CC1CCN(C(=O)c2ccc(NC(=O)c3ccccc3)cc2)CC1` gave a kinetic solubility above 48.4 µg/mL.

`Cc1cc(OC(=O)c2cccc(F)c2)c([N+](=O)[O-])c(=O)[nH]1` displayed a kinetic solubility above 43.8 µg/mL.

`COc1ccc(OCC(=O)OC(C)CN2CCCCC2)cc1` (configuration not stated) returned a solubility (kinetic) above 46.1 µg/mL.

On to `COc1ccc(NC(=O)CCOc2ccc(C)cc2)c(OC)c1`, for which the solubility (kinetic) was found to be 29.6 µg/mL (≈ 93.9 µM).

For `COc1ccc(Cn2c(=S)[nH]c3ccccc32)cc1`, the solubility (kinetic) came to 1.2 µg/mL (≈ 4.44 µM).

In turn, `COc1cccc(NC2=C(NCCO)C(=O)c3ccccc3C2=O)c1` came in with a kinetic solubility of 47.4 µg/mL (≈ 140 µM).

As to `O=C(CNC(=O)c1ccccc1F)OC1CCOC1=O` (configuration not stated), the kinetic solubility was above 42.2 µg/mL.

In turn, `CCOC(=O)CCn1cc(F)c(=O)[nH]c1=O` showed a solubility (kinetic) above 34.5 µg/mL.

Turning to `COc1ccc(Cl)cc1NC(=O)C1CC(c2ccccc2O)=NO1` (configuration not stated), the solubility (kinetic) is 0.9 µg/mL (≈ 2.6 µM).

For the molecule `O=C(NNC(=S)Nc1ccccc1C(F)(F)F)c1cccnc1`, the solubility (kinetic) was above 51 µg/mL.

Molecule `Cc1ccc(CNc2nc(N)c([N+](=O)[O-])c(NCCO)n2)cc1` came in with a kinetic solubility of 43.4 µg/mL (≈ 136 µM).

The molecule `C=CCOC(=O)C1=C(C)NC(=O)NC1c1ccc(OCC)cc1` (configuration not stated) displayed a kinetic solubility of 7.4 µg/mL (≈ 23.4 µM). This solubility kinetic lies about 5.9-fold lower than the previous one.

For `O=C(Nc1ccc(Cl)cc1N1CCOCC1)C1CC1`, the kinetic solubility is above 42.1 µg/mL.

For `COc1ccc(CN2CCCCCC2)cc1OC`, the solubility (kinetic) is 21.6 µg/mL (≈ 86.6 µM).

For the molecule `Cc1c(-c2ccccc2)[n+](=O)c2c(n1[O-])CCCC2`, the kinetic solubility is above 38.4 µg/mL.

For the molecule `Cc1ccc(S(=O)(=O)NCCN2CCNC2=O)cc1`, the solubility (kinetic) amounted to 38.5 µg/mL (≈ 136 µM).

With `CN(C)C(=S)Nc1ccc(Cc2ccncc2)cc1`, the solubility (kinetic) was found to be 36.5 µg/mL (≈ 134 µM). The solubility kinetic values of the last two molecules are within 1.5-fold of each other.

`Cc1[nH]c2ccccc2c1C(=O)C(=O)NC1CC1` displayed a solubility (kinetic) above 36.3 µg/mL.

With `CC(=O)c1ccccc1OC(=O)COc1ccc([N+](=O)[O-])cc1`, the kinetic solubility was above 47.3 µg/mL.

One may read the kinetic solubility as the concentration staying in solution when a stock, usually in DMSO, is diluted into the medium.
